MIC and logP data for ten molecules are collected here from ChEMBL document CHEMBL4196012 (Eur J Med Chem, 2018).

Data set [1] deals with Bacillus cereus. Put plainly: Antibacterial activity against Bacillus cereus 709 Roma after 18 to 24 hrs by double microdilution method. Type of data set: functional. (In general: In broth dilution the organism is exposed to a series of concentrations in liquid medium.)
In data set [2] the test system is Pseudomonas aeruginosa. The experiment in a line: Antibacterial activity against Pseudomonas aeruginosa ATCC 43288 after 18 to 24 hrs by double microdilution method. Type of data set: functional.
A further data set has as its system Enterococcus faecalis. The experiment in a line: Antibacterial activity against Enterococcus faecalis ATCC 29212 after 18 to 24 hrs by double microdilution method. Type of data set: functional.
Data set [3] concerns Mycolicibacterium smegmatis. Put plainly: Antibacterial activity against Mycobacterium smegmatis ATCC 607 after 48 to 72 hrs by double microdilution method. In kind it is functional.
The test system of data set [4] is Pseudomonas aeruginosa. The experiment in a line: Antibacterial activity against Pseudomonas aeruginosa ATCC 10145 after 18 to 24 hrs by double microdilution method. Type of data set: functional.
The subject of data set [5] is Escherichia coli. The experiment in a line: Antibacterial activity against Escherichia coli ATCC 25922 after 18 to 24 hrs by double microdilution method. Type of data set: functional.
In data set [6] the test system is Staphylococcus aureus. The experiment in a line: Antibacterial activity against Staphylococcus aureus ATCC 25923 after 18 to 24 hrs by double microdilution method. Type of data set: functional.
Data set [7] has as its system Yersinia pseudotuberculosis. The experiment in a line: Antibacterial activity against Yersinia pseudotuberculosis ATCC 911 after 18 to 24 hrs by double microdilution method. In kind it is functional.
For data set [8], the system named is Escherichia coli. Put plainly: Antibacterial activity against Escherichia coli ATCC 35218 after 18 to 24 hrs by double microdilution method. Type of data set: functional.
The subject of data set [9] is Staphylococcus aureus. Put plainly: Antibacterial activity against methicillin-resistant Staphylococcus aureus MIKROBANK 14001 by broth microdilution method. Type of data set: functional.
The subject of data set [10] is Staphylococcus aureus. The experiment in a line: Antibacterial activity against methicillin-sensitive Staphylococcus aureus ATCC 6538 after 18 hrs by broth microdilution method. In kind it is functional. Particulars: ATCC 6538, 18 h.
Data set [11] deals with Staphylococcus aureus. Put plainly: Antibacterial activity against methicillin-sensitive Staphylococcus aureus ATCC 25923 after 18 hrs by broth microdilution method. In kind it is functional. Particulars: ATCC 25923, 18 h.
Data set [12] relates to Bacillus subtilis. Put plainly: Antibacterial activity against Bacillus subtilis ATCC 6638 after 18 hrs by broth microdilution method. Type of data set: functional. Particulars: ATCC 6638, 18 h.
The test system of the next data set is Micrococcus luteus. The experiment in a line: Antibacterial activity against Micrococcus luteus ATCC 10240 after 18 hrs by broth microdilution method. Type of data set: functional. The conditions noted are these: ATCC 10240, 18 h.
Data set [13] has as its system Staphylococcus epidermidis. Put plainly: Antibacterial activity against Staphylococcus epidermidis ATCC 12228 after 18 hrs by broth microdilution method. Type of data set: functional. The conditions noted are these: ATCC 12228, 18 h.
Data set [14] relates to Bacillus cereus. Put plainly: Antibacterial activity against Bacillus cereus ATCC 10876 after 18 hrs by broth microdilution method. Type of data set: functional. The conditions noted are these: ATCC 10876, 18 h.
The nature of data set [15]: Partition coefficient, log P of the compound. In kind it is physicochemical. Particulars: octanol/water.
Data set [16] deals with Staphylococcus epidermidis. The experiment in a line: Antibacterial activity against Staphylococcus epidermidis ATCC 12228 by agar dilution method. Type of data set: functional. Background: Agar dilution tests growth on a series of plates holding different concentrations.
Data set [17] has as its system Klebsiella pneumoniae. Put plainly: Antibacterial activity against Klebsiella pneumoniae ATCC 10031 by agar dilution method. In kind it is functional.
Data set [18] relates to Escherichia coli. Put plainly: Antibacterial activity against Escherichia coli ATCC 8739 by agar dilution method. Type of data set: functional.
Data set [19] deals with Bacillus subtilis. Put plainly: Antibacterial activity against Bacillus subtilis PTCC 1023 by agar dilution method. Type of data set: functional.
The test system of data set [20] is Staphylococcus aureus. Put plainly: Antibacterial activity against Staphylococcus aureus ATCC 6538P by agar dilution method. In kind it is functional.
For data set [21], the system named is Pseudomonas aeruginosa. The experiment in a line: Antibacterial activity against Pseudomonas aeruginosa ATCC 9027 by agar dilution method. In kind it is functional.
Data set [22] concerns Staphylococcus aureus. Put plainly: Antibacterial activity against Staphylococcus aureus NCDC 110 after overnight incubation by single disc method. Type of data set: functional.
The next data set deals with Paenibacillus polymyxa. Put plainly: Antibacterial activity against Paenibacillus polymyxa NCDC 64 after overnight incubation by single disc method. Type of data set: functional.
Data set [23] deals with Bacillus subtilis. Put plainly: Antibacterial activity against Bacillus subtilis NCDC 71 after overnight incubation by single disc method. In kind it is functional.
The subject of data set [24] is Escherichia coli. Put plainly: Antibacterial activity against Escherichia coli NCDC 134 after overnight incubation by single disc method. Type of data set: functional.
Data set [25] relates to Pseudomonas aeruginosa. The experiment in a line: Antibacterial activity against Pseudomonas aeruginosa NCDC105 after overnight incubation by single disc method. In kind it is functional.
The test system of data set [26] is Klebsiella pneumoniae. The experiment in a line: Antibacterial activity against Klebsiella pneumoniae ATCC […] by CLSI agar dilution method. In kind it is functional.
For data set [27], the system named is Staphylococcus aureus. Put plainly: Antibacterial activity against Staphylococcus aureus ATCC 29213 by CLSI agar dilution method. In kind it is functional.
Data set [28] deals with Staphylococcus epidermidis. The experiment in a line: Antibacterial activity against methicillin-sensitive Staphylococcus epidermidis by CLSI agar dilution method. In kind it is functional.
Data set [29] has as its system Staphylococcus epidermidis. The experiment in a line: Antibacterial activity against Staphylococcus epidermidis ATCC 12228 by CLSI agar dilution method. Type of data set: functional.
The test system of data set [30] is Escherichia coli. The experiment in a line: Antibacterial activity against Escherichia coli ATCC […] by CLSI agar dilution method. Type of data set: functional.
In data set [31] the test system is Staphylococcus aureus. The experiment in a line: Antibacterial activity against methicillin-sensitive Staphylococcus aureus by CLSI agar dilution method. Type of data set: functional.

≈ marks a conversion by molar mass, not a printed value.

The term MIC denotes the lowest concentration found to suppress growth. The term logP denotes the decadic logarithm of the partition coefficient of the neutral form, usually between octanol and water. A low value points to lower lipophilicity.

Consider `CC1(C)S[C@@H]2[C@H](NC(=O)[C@H](N)c3ccccc3)C(=O)N2[C@H]1C(=O)O` [AMPICILLIN], for which the MIC against Bacillus cereus [1] was 10 to 128 µg/mL (≈ 28.6 to 366 µM); against Pseudomonas aeruginosa [2], 10 to 128 µg/mL (≈ 28.6 to 366 µM); against Enterococcus faecalis it was 10 to 128 µg/mL (≈ 28.6 to 366 µM); in data set [3], 10 to 128 µg/mL (≈ 28.6 to 366 µM); with Pseudomonas aeruginosa [4], 3.9 to 250 µg/mL (≈ 11.2 to 715 µM); against Escherichia coli [5], 10 to 128 µg/mL (≈ 28.6 to 366 µM). Moreover, the MIC against Staphylococcus aureus [6] fell in the range of 10 to 128 µg/mL (≈ 28.6 to 366 µM); in [7], 10 to 128 µg/mL (≈ 28.6 to 366 µM); with Escherichia coli [8] it was 3.9 to 250 µg/mL (≈ 11.2 to 715 µM).
As to `O=C(O)c1cn(C2CC2)c2cc(N3CCN(Cn4nc(-c5cccc(O)c5)n(Cc5ccc(Br)cc5Cl)c4=S)CC3)c(F)cc2c1=O`, the MIC (in the data set on Staphylococcus aureus [9]; against Staphylococcus aureus [10]; in the data set with Staphylococcus aureus [11]; against Bacillus subtilis [12]; against Micrococcus luteus; in data set [13]) was 0.01 to 1.32 µM (≈ 0.0074 to 0.977 µg/mL) throughout. The MIC with Bacillus cereus [14] was in the range of 0.01 to 1.32 µM (≈ 0.0074 to 0.977 µg/mL).
Take `COC(=O)c1cn(C2CC2)c2cc(N3CCNCC3)c(F)cc2c1=O`: the logP in data set [15] is -0.441.
On the same count and under the same terms, the figure for `CCOC(=O)c1cn(C2CC2)c2cc(N3CCNCC3)c(F)cc2c1=O` [CIPROFLOXACIN ETHYL ESTER] is -0.065.
As to `O=C(O)c1cn(C2CC2)c2cc(N3CCN(Cn4nc(CNc5ccc(N6CCN(c7ccc(F)cc7)CC6)c(F)c5)n(Cc5ccccc5)c4=S)CC3)c(F)cc2c1=O`, the MIC (with Bacillus cereus [1]; in the data set with Enterococcus faecalis; in data set [3]; against Pseudomonas aeruginosa [4]; against Staphylococcus aureus [6]; in [7]) was below 0.24 µg/mL throughout. In the data set on Escherichia coli [8], this molecule returned an MIC below 0.24 µg/mL.
`O=C(O)c1cn(C2CC2)c2cc(N3CCN(Cn4nc(CNc5ccc(N6CCN(c7ccc(F)cc7)CC6)c(F)c5)n(-c5ccccc5)c4=S)CC3)c(F)cc2c1=O`: the MIC (with Bacillus cereus [1]; with Enterococcus faecalis; in data set [3]; in the data set on Pseudomonas aeruginosa [4]; in the data set with Staphylococcus aureus [6]; in [7]) was below 0.24 µg/mL each time. The MIC against Escherichia coli [8] was below 0.24 µg/mL.
Turning to `O=C(O)c1cn(C2CC2)c2cc(N3CCN(c4nnc(-c5ccc([N+](=O)[O-])s5)s4)CC3)c(F)cc2c1=O`, the MIC fell in the range of 0.008 to 0.015 µg/mL (≈ 0.0147 to 0.0276 µM) in data set [16]; 2 to 64 µg/mL (≈ 3.69 to 118 µM) against Klebsiella pneumoniae [17]; 2 to 64 µg/mL (≈ 3.69 to 118 µM) in the data set with Escherichia coli [18]; 0.008 to 0.015 µg/mL (≈ 0.0147 to 0.0276 µM) against Bacillus subtilis [19]; 0.008 to 0.015 µg/mL (≈ 0.0147 to 0.0276 µM) in the data set on Staphylococcus aureus [20]; 2 to 64 µg/mL (≈ 3.69 to 118 µM) in the data set on Pseudomonas aeruginosa [21].
As for `COc1ccccc1N1CCN(Cc2nn(CN3CCN(c4cc5c(cc4F)c(=O)c(C(=O)O)cn5C4CC4)CC3)c(=S)n2-c2ccccc2)CC1`, the MIC (with Bacillus cereus [1]; with Enterococcus faecalis; in [3]; against Pseudomonas aeruginosa [4]; with Staphylococcus aureus [6]; in data set [7]) was below 0.24 µg/mL each time. In the data set with Escherichia coli [8], this molecule had an MIC below 0.24 µg/mL.
Regarding `O=C(CN1CCN(c2cc3c(cc2F)c(=O)c(C(=O)O)cn3C2CC2)CC1)Nc1nc2ccc(Cl)cc2s1`, the MIC against Staphylococcus aureus [22], in the data set with Paenibacillus polymyxa, against Bacillus subtilis [23], in the data set with Escherichia coli [24] and with Pseudomonas aeruginosa [25] was 3 to 15 µg/mL (≈ 5.4 to 27 µM) in each case.
Regarding `COc1c(N2CCNC(C)C2)c(F)cc2c(=O)c(C(=O)O)cn(C3CC3)c12` (stereo unspecified) [GATIFLOXACIN], the MIC in the data set with Staphylococcus aureus [22] was in the range of 5 to 100 µg/mL (≈ 13.3 to 266 µM); against Klebsiella pneumoniae [26], 0.06 to 16 µg/mL (≈ 0.16 to 42.6 µM); against Paenibacillus polymyxa, 5 to 100 µg/mL (≈ 13.3 to 266 µM); with Bacillus subtilis [23], 5 to 100 µg/mL (≈ 13.3 to 266 µM); against Staphylococcus aureus [27], 0.06 to 16 µg/mL (≈ 0.16 to 42.6 µM); in data set [28] it was 0.06 to 16 µg/mL (≈ 0.16 to 42.6 µM). Moreover, the MIC lay within 0.06 to 16 µg/mL (≈ 0.16 to 42.6 µM) in [29]; 5 to 100 µg/mL (≈ 13.3 to 266 µM) in the data set on Escherichia coli [24]; 0.06 to 16 µg/mL (≈ 0.16 to 42.6 µM) against Escherichia coli [30]; 0.06 to 16 µg/mL (≈ 0.16 to 42.6 µM) in the data set on Staphylococcus aureus [31]; 5 to 100 µg/mL (≈ 13.3 to 266 µM) against Pseudomonas aeruginosa [25].
